pIC50: −log10 of the molar value. Values after ≈ are worked out from the molar mass of the structure shown. Read-outs that look alike come from different tables or passages of the source.
Tests used:
[1] = tested on: Normal Lung Fibroblasts (IMR-90); format: cell-based, human; details: read-out: Toxicity IC50 IMR-90
Mtb H37Rv = test: microbe, parasite or virus in culture; format: cell-based, Mycobacterium tuberculosis
[2] = tested on: Human non-tumorigenic lung epithelial cells (BEAS-2B); format: cell-based; details: read-out: Toxicity IC50 BEAS-2B
[3] = tested on: Human Embryonic Kidney cells (HEK 293); details: for pIC50: read-out: Toxicity IC50 HEK293
[4] = 6.0 × 10^–5 M in DMSO and 28% ethanol-water, 24 h, 25 °C
[5] = MABA, Mtb H37Rv, one week at 37 °C

Molecule	pIC50 ([1]; MTT, 48 h, triplicate)	MIC (Mtb H37Rv; [5])	pIC50 ([2]; MTT, 48 h, triplicate)	pIC50 ([3]; MTT, 48 h, triplicate)	Change in λmax values (stability of hydrazone) [4]	Cytotoxicity against HEK293 (in words) ([3]; MTT)	pIC50 [1]	MIC (Mtb H37Rv)	pIC50 [2]	pIC50 [3]	MIC (Mtb H37Rv; Mycobacterium tuberculosis, 168 h, MABA, Mtb H37Rv, one week at 37 °C)
3-((2-Isonicotinoylhydrazono)methyl)phenyl 2,4,6-trimethylbenzenesulfonate [SIH3]	< 4.00	0.62 µM	< 4.00	4.00	–	–	–	–	–	–	–
3-((2-Isonicotinoylhydrazono)methyl)phenyl 2,5-dichlorobenzenesulfonate [SIH8]	4.00	0.62 µM	< 4.00	< 4.00	–	–	–	–	–	–	–
3-((2-Isonicotinoylhydrazono)methyl)phenyl 3-nitrobenzenesulfonate [SIH10]	< 4.00	0.62 µM	< 4.00	< 4.00	–	–	–	–	–	–	–
3-((2-Isonicotinoylhydrazono)methyl)phenyl 4-(tert-butyl)benzenesulfonate [SIH2]	4.05	0.62 µM	< 4.00	< 4.00	–	–	–	–	–	–	–
3-((2-Isonicotinoylhydrazono)methyl)phenyl 4-acetamidobenzenesulfonate [SIH11]	< 4.00	0.62 µM	< 4.00	< 4.00	–	–	–	–	–	–	–
3-((2-Isonicotinoylhydrazono)methyl)phenyl 4-bromobenzenesulfonate [SIH5]	4.04	0.62 µM	< 4.00	4.00	–	–	–	–	–	–	–
3-((2-Isonicotinoylhydrazono)methyl)phenyl 4-chlorobenzenesulfonate [SIH6]	< 4.00	0.62 µM	< 4.00	< 4.00	–	–	–	–	–	–	–
3-((2-Isonicotinoylhydrazono)methyl)phenyl 4-iodobenzenesulfonate [SIH7]	4.00	0.62 µM	< 4.00	< 4.00	–	–	–	–	–	–	–
3-((2-Isonicotinoylhydrazono)methyl)phenyl 4-methoxybenzenesulfonate [SIH4]	< 4.00	0.31 µM	< 4.00	4.39	no significant change in λmax values	moderately toxic	–	–	–	–	–
3-((2-Isonicotinoylhydrazono)methyl)phenyl 4-methylbenzenesulfonate [SIH1]	< 4.00	0.31 µM	< 4.00	4.24	no significant change in λmax values	moderately toxic	–	–	–	–	–
3-((2-Isonicotinoylhydrazono)methyl)phenyl 4-nitrobenzenesulfonate [SIH9]	< 4.00	0.62 µM	< 4.00	4.00	–	–	–	–	–	–	–
3-((2-Isonicotinoylhydrazono)methyl)phenyl [1,1′-biphenyl]-4-sulfonate [SIH12]	4.24	0.31 µM	< 4.00	4.28	no significant change in λmax values	moderately toxic	–	–	–	–	–
3-((2-Isonicotinoylhydrazono)methyl)phenyl quinoline-8-sulfonate [SIH13]	–	–	–	–	–	–	4.00	0.31 µM	< 4.00	4.23	–
NNC(=O)c1ccncc1 [Isoniazid, isonicotinic acid hydrazide, reference compound]	–	–	–	–	–	–	–	–	–	–	0.31 µM (≈ 0.0425 µg/mL)
